In ChEMBL document CHEMBL3217409 (Medchemcomm, 2011):
Calls of active or inactive are those of the source. No cut-off for these calls is given here.

Experiments:
Homo sapiens = species: Homo sapiens; assay: Selectivity ratio of Ki for human MT1 receptor to Ki for human MT2 receptor
[1] = biological target: T1, Melatonin receptor type 1B (Homo sapiens, UniProt P49286); assay: Displacement of 2-[125I]-iodomelatonin from human MT2 receptor expressed in CHO cells; format: cell-based
T1 sequence (P49286 whole entry): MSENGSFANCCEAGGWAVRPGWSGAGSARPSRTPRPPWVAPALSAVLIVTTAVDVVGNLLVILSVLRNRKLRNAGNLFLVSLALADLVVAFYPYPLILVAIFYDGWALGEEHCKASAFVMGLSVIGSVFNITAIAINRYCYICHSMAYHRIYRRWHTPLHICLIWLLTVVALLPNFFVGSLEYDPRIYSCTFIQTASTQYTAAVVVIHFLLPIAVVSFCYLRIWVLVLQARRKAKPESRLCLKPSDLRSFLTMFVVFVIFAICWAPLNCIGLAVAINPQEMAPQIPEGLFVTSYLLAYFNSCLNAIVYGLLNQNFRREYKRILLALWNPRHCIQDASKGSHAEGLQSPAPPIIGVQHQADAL

[2] = biological target: T2, Melatonin receptor type 1A (Homo sapiens, UniProt P48039); assay: Displacement of 2-[125I]-iodomelatonin from human MT1 receptor expressed in CHO cells; format: cell-based
[3] = biological target: T3, Melatonin receptor type 1B (Homo sapiens) (UniProt P49286); assay: Intrinsic activity at human MT2 receptor expressed in CHO cells; format: cell-based
T3 sequence (whole entry): T1 sequence (P49286 whole entry)

[4] = biological target: T2, Melatonin receptor type 1A; assay: Antagonist activity at human MT1 receptor expressed in CHO cells assessed as inhibition of melatonin-induced activity at 10 to 100 nM; format: cell-based
[5] = biological target: T2, Melatonin receptor type 1A; assay: Intrinsic activity at human MT1 receptor expressed in CHO cells; format: cell-based
[6] = biological target: T3, Melatonin receptor type 1B (Homo sapiens); assay: Antagonist activity at human MT2 receptor expressed in CHO cells assessed as inhibition of melatonin-induced activity at 10 to 100 nM; format: cell-based

T2 sequence (P48039 whole entry): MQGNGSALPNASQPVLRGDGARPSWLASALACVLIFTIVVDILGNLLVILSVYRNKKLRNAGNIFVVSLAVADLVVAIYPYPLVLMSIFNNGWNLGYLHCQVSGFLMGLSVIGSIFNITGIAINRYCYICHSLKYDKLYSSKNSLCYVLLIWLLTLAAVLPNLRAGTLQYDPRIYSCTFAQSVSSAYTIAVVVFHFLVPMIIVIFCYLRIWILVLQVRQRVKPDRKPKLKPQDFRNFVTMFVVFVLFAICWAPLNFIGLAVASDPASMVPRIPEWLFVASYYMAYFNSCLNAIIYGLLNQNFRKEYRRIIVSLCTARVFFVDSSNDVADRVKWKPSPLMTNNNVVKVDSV

## COc1ccc2[nH]c(CN3CCc4ccccc43)c(CCNC(C)=O)c2c1
Homo sapiens
  Ratio Ki: 95

## COc1ccc2[nH]c(Cn3ccc4ccccc43)c(CCNC(=O)C3CCC3)c2c1
[1]
  Ki: 81.3 nM
[2]
  Ki: 57.5 nM

## COc1ccc2[nH]c(CN3Cc4ccccc4C3)c(CCNC(=O)C3CC3)c2c1
[1]
  Ki: 33.9 nM
[2]
  Ki: 61.7 nM

## CCC(=O)NCCCc1cc(OC)ccc1OCc1cccc(OC)c1
[1]
  Ki: 1.7 nM
Homo sapiens
  Ratio Ki: 790
[2]
  Ki: 1350 nM

## COc1ccc2[nH]c(Cn3ccc4ccccc43)c(CCNC(C)=O)c2c1
[1]
  Ki: 5.75 nM
[2]
  Ki: 182 nM

## COc1ccc2[nH]c(CN3Cc4ccccc4C3)c(CCNC(=O)C3CCC3)c2c1
[1]
  Ki: 200 nM
[2]
  Ki: 112 nM

## CCC(=O)NCCc1c(CN2Cc3ccccc3C2)[nH]c2ccc(OC)cc12
[1]
  Ki: 3.72 nM
[2]
  Ki: 5.62 nM

## COc1ccc2[nH]c(CN3CCc4ccccc4C3)c(CCNC(C)=O)c2c1
[1]
  Ki: 21.4 nM
[2]
  Ki: 251 nM

## COc1ccc2[nH]c(CN3Cc4ccccc4C3)c(CCNC(C)=O)c2c1
[3]
  Activity: inactive
[1]
  Ki: 2.24 nM
Homo sapiens
  Ratio Ki: 124
[4]
  inhibition: Active
[5]
  Activity: inactive
[6]
  inhibition: Active
[2]
  Ki: 282 nM

## C=CCC(=O)NCCc1c(CN2Cc3ccccc3C2)[nH]c2ccc(OC)cc12
[1]
  Ki: 9.33 nM
[2]
  Ki: 24 nM
